Data from patent publication US5891869A, “Basic oxazoline-amide derivatives of GE2270 and GE2270-like antibiotics” (Biosearch Italia, S.p.A., priority 1995, dated 1999).

Tests used:
Assay in all cases: MIC by microbroth dilution
[1] = test system: Staphylococcus aureus L165; format: cell-based; conditions: 0,01% BSA, inoculum 10^4 CFU/ml, read after 18-24 h, Iso-Sensitest broth
Experimental: (§1) The minimal inhibitory concentration (MIC) has been determined by microbroth dilution methodology, in the presence of 0,01% (w/v) of bovine serum albumin (BSA). BSA is added to the diluent to avoid possible adherence of the compounds of the invention to the plastic surface of the microtiter wells, as disclosed also by B. Goldstein et al., Antimicrobial Agents and Chemotherapy, 37 (1993), 741-745.
(§2) Inocula were 10^4 CFU/ml, except for Propionibacterium acnes and Bacteroides fragilis (10^5 CFU/ml) MICs were read after 18-24 h, except for Haemophilus influenzae, P. acnes, B. fragilis (48 h).
(§3) All microorganisms were incubated at 37° C.; H. influenzae in a 5% CO2 atmosphere, anaerobes in a N2 --CO2 --H2 (80:10:10) mixture; other organisms in air.
(§4) The growth media are: Oxoid Iso-Sensitest broth for staphylococci and Enterococcus faecalis); Difco Todd Hewitt broth for streptococci; Difco brain heart infusion broth+1% Difco Supplement C. for H. influenzae; Difco Wilkins-Chalgren broth for anaerobes.

[2] = test system: Streptococcus pyogenes L49; format: cell-based; conditions: 0,01% BSA, 10^4 CFU/ml, 18-24 h, Todd Hewitt broth
Experimental: as §1, §2, §3, §4

[3] = test system: Strept. pneumoniae L44; format: cell-based, Streptococcus pneumoniae; conditions: 0,01% BSA, 10^4 CFU/ml, 18-24 h, Todd Hewitt broth
Experimental: as §1, §2, §3, §4

[4] = test system: Strept. sanguis L1721; format: cell-based, Streptococcus sanguis; conditions: 0,01% BSA, 10^4 CFU/ml, 18-24 h, Todd Hewitt broth
Experimental: as §1, §2, §3, §4

[5] = test system: Strept. agalactiae L310; format: cell-based, Streptococcus agalactiae; conditions: 0,01% BSA, 10^4 CFU/ml, 18-24 h, Todd Hewitt broth
Experimental: as §1, §2, §3, §4

[6] = test system: Haemoph. influenzae ATCC 19418 L970; format: cell-based, Haemophilus influenzae; conditions: 0,01% BSA, 10^4 CFU/ml, 48 h, 5% CO2, brain heart infusion broth+1% Supplement C
Experimental: as §1, §2, §3, §4

[7] = test system: Bacteroides fragilis ATCC 25285 L1011; format: cell-based; conditions: 0,01% BSA, 10^5 CFU/ml, 48 h, anaerobic, Wilkins-Chalgren broth
Experimental: as §1, §2, §3, §4

[8] = test system: Staph. epidermidis ATCC 12228 L147; format: cell-based, Staphylococcus epidermidis; conditions: 0,01% BSA, 10^4 CFU/ml, 18-24 h, Iso-Sensitest broth
Experimental: as §1, §2, §3, §4

[9] = test system: Staph. haemolyticus L602; format: cell-based, Staphylococcus haemolyticus; conditions: 0,01% BSA, 10^4 CFU/ml, 18-24 h, Iso-Sensitest broth
Experimental: as §1, §2, §3, §4

[10] = test system: Propionibact. acnes ATCC 6919 L1014; format: cell-based, Propionibacterium acnes; conditions: 0,01% BSA, 10^5 CFU/ml, 48 h, anaerobic, Wilkins-Chalgren broth
Experimental: as §1, §2, §3, §4

| SMILES | MIC of the compounds [1] [µg/mL] | MIC of the compounds [2] [µg/mL] | MIC of the compounds [3] [µg/mL] | MIC of the compounds [4] [µg/mL] | MIC of the compounds [5] [µg/mL] | MIC of the compounds [6] [µg/mL] | MIC of the compounds [7] [µg/mL] | MIC of the compounds [8] [µg/mL] | MIC of the compounds [9] [µg/mL] | MIC of the compounds [10] [µg/mL] |
| --- | --- | --- | --- | --- | --- | --- | --- | --- | --- | --- |
| CCN1CCCC1CNC(=O)C1COC(c2csc(-c3ccc4c(n3)-c3csc(n3)-c3csc(n3)C(C(O)c3ccccc3)NC(=O)CNC(=O)c3nc(sc3COC)C(C(C)C)NC(=O)c3nc(sc3C)C(CC(=O)NC)NC(=O)c3csc-4n3)n2)=N1 (mixture of isomers) [Compound 1] | 0.06 | 2 | 0.25 | 0.5 | 2 | 128 | – | – | – | – |
| CNC(=O)CC1NC(=O)c2csc(n2)-c2ccc(-c3nc(C4=NC(C(=O)NCCN5CCCC5)CO4)cs3)nc2-c2csc(n2)-c2csc(n2)C(C(O)c2ccccc2)NC(=O)CNC(=O)c2nc(sc2COC)C(C(C)C)NC(=O)c2nc1sc2C (mixture of isomers) [Compound 2] | 0.06 | 1 | 0.25 | 0.5 | 4 | 128 | – | – | – | – |
| CCN(CC)CCNC(=O)C1COC(c2csc(-c3ccc4c(n3)-c3csc(n3)-c3csc(n3)C(C(O)c3ccccc3)NC(=O)CNC(=O)c3nc(sc3COC)C(C(C)C)NC(=O)c3nc(sc3C)C(CC(=O)NC)NC(=O)c3csc-4n3)n2)=N1 (mixture of isomers) [Compound 3] | 0.06 | 2 | 0.5 | 0.5 | 4 | 128 | – | – | – | – |
| CNC(=O)CC1NC(=O)c2csc(n2)-c2ccc(-c3nc(C4=NC(C(=O)N(C)CCN(C)C)CO4)cs3)nc2-c2csc(n2)-c2csc(n2)C(C(O)c2ccccc2)NC(=O)CNC(=O)c2nc(sc2COC)C(C(C)C)NC(=O)c2nc1sc2C (mixture of isomers) [Compound 4] | 0.06 | 0.5 | 0.13 | 0.13 | 0.5 | 4 | 8 | 0.06 | 0.06 | 0.016 |
| CNC(=O)CC1NC(=O)c2csc(n2)-c2ccc(-c3nc(C4=NC(C(=O)NCCCN(C)C)CO4)cs3)nc2-c2csc(n2)-c2csc(n2)C(C(O)c2ccccc2)NC(=O)CNC(=O)c2nc(sc2COC)C(C(C)C)NC(=O)c2nc1sc2C (mixture of isomers) [Compound 5] | 0.06 | 1 | 0.25 | 0.25 | 2 | – | 32 | – | – | – |
| CNC(=O)CC1NC(=O)c2csc(n2)-c2ccc(-c3nc(C4=NC(C(=O)N5CCN(C)CC5)CO4)cs3)nc2-c2csc(n2)-c2csc(n2)C(C(O)c2ccccc2)NC(=O)CNC(=O)c2nc(sc2COC)C(C(C)C)NC(=O)c2nc1sc2C (mixture of isomers) [Compound 6] | 0.06 | 4 | 0.25 | 0.25 | 4 | – | 128 | – | – | – |
| CNC(=O)CC1NC(=O)c2csc(n2)-c2ccc(-c3nc(C4=NC(C(=O)NCCN(C)C)CO4)cs3)nc2-c2csc(n2)-c2csc(n2)C(C(O)c2ccccc2)NC(=O)CNC(=O)c2nc(sc2COC)C(C(C)C)NC(=O)c2nc1sc2C (mixture of isomers) [Compound 7] | 0.13 | 4 | 1 | 1 | 8 | – | – | – | – | – |
| CCN(CCN(C)C)C(=O)C1COC(c2csc(-c3ccc4c(n3)-c3csc(n3)-c3csc(n3)C(C(O)c3ccccc3)NC(=O)CNC(=O)c3nc(sc3COC)C(C(C)C)NC(=O)c3nc(sc3C)C(CC(=O)NC)NC(=O)c3csc-4n3)n2)=N1 (mixture of isomers) [Compound 8] | 0.06 | 8 | 0.5 | 1 | 4 | – | – | – | – | – |
| CCN(CC)CCN(CC)C(=O)C1COC(c2csc(-c3ccc4c(n3)-c3csc(n3)-c3csc(n3)C(C(O)c3ccccc3)NC(=O)CNC(=O)c3nc(sc3COC)C(C(C)C)NC(=O)c3nc(sc3C)C(CC(=O)NC)NC(=O)c3csc-4n3)n2)=N1 (mixture of isomers) [Compound 9] | 0.06 | 2 | 0.5 | 1 | 32 | – | – | – | – | – |

Second part, led by results:

| MIC of the compounds [1] [µg/mL] | MIC of the compounds [2] [µg/mL] | MIC of the compounds [3] [µg/mL] | MIC of the compounds [4] [µg/mL] | MIC of the compounds [5] [µg/mL] | SMILES | MIC of the compounds [6] [µg/mL] | MIC of the compounds [7] [µg/mL] | MIC of the compounds [8] [µg/mL] | MIC of the compounds [9] [µg/mL] | MIC of the compounds [10] [µg/mL] |
| --- | --- | --- | --- | --- | --- | --- | --- | --- | --- | --- |
| 0.06 | 2 | 0.25 | 0.5 | 4 | CNC(=O)CC1NC(=O)c2csc(n2)-c2ccc(-c3nc(C4=NC(C(=O)N5CCC(N(C)C)CC5)CO4)cs3)nc2-c2csc(n2)-c2csc(n2)C(C(O)c2ccccc2)NC(=O)CNC(=O)c2nc(sc2COC)C(C(C)C)NC(=O)c2nc1sc2C (mixture of isomers) [Compound 10] | – | – | – | – | – |
| 0.13 | 8 | 2 | 4 | > 128 | CNC(=O)CC1NC(=O)c2csc(n2)-c2ccc(-c3nc(C4=NC(C(=O)NCCN(C(C)C)C(C)C)CO4)cs3)nc2-c2csc(n2)-c2csc(n2)C(C(O)c2ccccc2)NC(=O)CNC(=O)c2nc(sc2COC)C(C(C)C)NC(=O)c2nc1sc2C (mixture of isomers) [Compound 11] | – | – | – | – | – |
| 0.06 | 2 | 0.5 | 0.5 | 4 | CNC(=O)CC1NC(=O)c2csc(n2)-c2ccc(-c3nc(C4=NC(C(=O)N5CC(C)NC(C)C5)CO4)cs3)nc2-c2csc(n2)-c2csc(n2)C(C(O)c2ccccc2)NC(=O)CNC(=O)c2nc(sc2COC)C(C(C)C)NC(=O)c2nc1sc2C (mixture of isomers) [Compound 12] | – | – | – | – | – |
| 0.06 | 2 | 0.25 | 0.25 | 4 | CNC(=O)CC1NC(=O)c2csc(n2)-c2ccc(-c3nc(C4=NC(C(=O)N(C)CC(=O)N(C)CCN(C)C)CO4)cs3)nc2-c2csc(n2)-c2csc(n2)C(C(O)c2ccccc2)NC(=O)CNC(=O)c2nc(sc2COC)C(C(C)C)NC(=O)c2nc1sc2C (mixture of isomers) [Compound 14] | – | – | – | – | – |
| 0.06 | 4 | 0.25 | 0.5 | 4 | CNC(=O)CC1NC(=O)c2csc(n2)-c2ccc(-c3nc(C4=NC(C(=O)NC(C)C(=O)N(C)CCN(C)C)CO4)cs3)nc2-c2csc(n2)-c2csc(n2)C(C(O)c2ccccc2)NC(=O)CNC(=O)c2nc(sc2COC)C(C(C)C)NC(=O)c2nc1sc2C (mixture of isomers) [Compound 15] | – | – | – | – | – |
| 0.06 | 2 | 0.25 | 0.25 | 8 | CNC(=O)CC1NC(=O)c2csc(n2)-c2ccc(-c3nc(C4=NC(C(=O)N(C)CCN(C)CCN(C)C)CO4)cs3)nc2-c2csc(n2)-c2csc(n2)C(C(O)c2ccccc2)NC(=O)CNC(=O)c2nc(sc2COC)C(C(C)C)NC(=O)c2nc1sc2C (mixture of isomers) [Compound 16] | – | – | – | – | – |
| 0.06 | 2 | 0.5 | 0.5 | 8 | CNC(=O)CC1NC(=O)c2csc(n2)-c2ccc(-c3nc(C4=NC(C(=O)N5CCN(CCCN(C)C)CC5)CO4)cs3)nc2-c2csc(n2)-c2csc(n2)C(C(O)c2ccccc2)NC(=O)CNC(=O)c2nc(sc2COC)C(C(C)C)NC(=O)c2nc1sc2C (mixture of isomers) [Compound 17] | – | – | – | – | – |
| 0.06 | 1 | 0.25 | 0.25 | 4 | CNC(=O)CC1NC(=O)c2csc(n2)-c2ccc(-c3nc(C4=NC(C(=O)N5CCCC5CN(C)CCN(C)C)CO4)cs3)nc2-c2csc(n2)-c2csc(n2)C(C(O)c2ccccc2)NC(=O)CNC(=O)c2nc(sc2COC)C(C(C)C)NC(=O)c2nc1sc2C (mixture of isomers) [Compound 21] | – | – | – | – | – |
